In brackets after ≈: the same amount, converted by molar mass. Where two headings read alike, the source gives them in different places.
Key:
PI3Kα = PI3Kα (Homo sapiens, UniProt P42336); test: Kinase-Glo Luminescent Kinase Assay, PI3Kα; assay type: biochemical
PI3Kγ = PI3Kγ (Homo sapiens, UniProt P48736); test: ADP-Glo Luminescent Kinase Assay, PI3Kγ; assay type: biochemical; conditions: read-out: IC50 on PI3K gamma
PI3Kβ = PI3Kβ (Homo sapiens, UniProt P42338); test: ADP-Glo Luminescent Kinase Assay, PI3Kβ; assay type: biochemical; conditions: read-out: IC50 on PI3K beta
PI3K delta = PI3K delta (Homo sapiens, UniProt O00329); test: Kinase-Glo Luminescent Kinase Assay, PI3K delta; assay type: biochemical
mTOR = mTOR (Homo sapiens, UniProt P42345); test: Lance Ultra Assay, mTOR; assay type: biochemical
[1] = system: A549 (human lung cancer cells); test: MTT assay, A549; assay type: cell-based; conditions: 72 h
Method in brief: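 Cells seeded at 4~5×10^4 cells/ml in DMEM with 5-10% FBS, treated after 24 h for 72 h at 37° C, 5% CO2, in duplicate wells. MTT (5 mg/ml) added for 4 h, formazan dissolved and OD read at 570 nm.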

[2] = system: HCT116 (human colon cancer cells); test: MTT assay, HCT116; assay type: cell-based; conditions: HCT-116, 72 h
[3] = system: U87MG (human brain star glioblastoma); test: MTT assay, U87MG; assay type: cell-based; conditions: U-87 MG, 72 h
Protocol: (§1) 1. Sample preparation: After dissolved with DMSO (Merck), PBS (−) was added to make 1000 μg/ml solution or a uniform suspension, and then diluted with PBS (−) containing the DMSO. Doxorubicin (DOX) was used as the positive control drug.
(§2) 2. Cell Line • 1) A549 (human lung cancer cells); 2) HCT116 (human colon cancer cells); 3) HepG2 (human hepatoma cells); 4) ZR-75-30 (human breast cancer cells); 5) U87MG (human brain star glioblastoma)
(§3) DMEM+5-10% FBS+double resistant
(§4) MTT assay. 100 μl cell suspension was added at a concentration of 4˜5×10^4 cells/ml to each well of a 96-well plate, and was set at 37° C., 5% CO2 in the incubator. After 24 h, the sample solution was added, 10 μl/hole, double wells were set, 37° C., acting for 72 h at 5% CO2. […] of 5 mg/ml was added to each well, the dissolving liquid was added after acted for 4 h, 100 μl/hole, kept in the incubator, and read 570 nm OD with MK-2 automatic microplate reader after dissolution.

five human tumor cells = test: MTT assay, five human tumor cells (summary in words); assay type: cell-based; conditions: A549, HCT116, HepG2, ZR-75-30, U87MG
Protocol: as §1, §2, §3, §4

A549 = test: NCI cytotoxicity test, A549; assay type: cell-based; conditions: Homo sapiens
Description: (§5) Cytotoxicity Test of Compound 9, 10 and 17 on 60 Kinds of Human Cancer Cell Lines from the US National Cancer Institute

COLO205 = test: NCI cytotoxicity test, COLO205; assay type: cell-based; conditions: Homo sapiens, COLO 205
Description: as §5

SF539 = test: NCI cytotoxicity test, SF539; assay type: cell-based; conditions: Homo sapiens, SF-539
Description: as §5

OVCAR3 = test: NCI cytotoxicity test, OVCAR3; assay type: cell-based; conditions: Homo sapiens, OVCAR-3
Description: as §5

SN12C = test: NCI cytotoxicity test, SN12C; assay type: cell-based; conditions: Homo sapiens
Description: as §5

PC3 = test: NCI cytotoxicity test, PC3; assay type: cell-based; conditions: Homo sapiens, PC-3
Description: as §5

MCF7 = test: NCI cytotoxicity test, MCF7; assay type: cell-based; conditions: Homo sapiens
Description: as §5

[4] = system: 60 kinds of human cancer cell lines; test: Cytotoxicity test on 60 kinds of human cancer cell lines from the US National Cancer Institute; assay type: cell-based
Description: as §5

[5] = system: human lung carcinoma A549 xenografts; test: In vivo efficacy on human lung carcinoma A549 xenografts in nude mice; design: species or system BALB/C nude mice; conditions: ig, GSK2126458 3 mg/kg, compound 9 10 mg/kg
Description: Strain: BALB/C nude mice (SPF grade), Source: Shanghai Slac laboratory animal limited liability company, the production license number: SCXK (Shanghai) 2007-0005, the using license number: SYXK (Shanghai) 2009-0068, gender: male, weight: 18-20 g, the number of animals per group: 6.
A549 solid tumors which were well-grown were taken, cut to uniform bits of about 3 mm size under aseptic condition, every bit was inoculated to each mouse subcutaneously in the right armpit with trocar, and randomly divided into three groups, each treatment was:
1) Control (saline), gavage, the dose 25 ml/kg, 14 days;
3) Compound 9, gavage, the dose 10 mg/kg, 14 days;
Regrouped according to tumor size on the 13th day after inoculation, the animals of which tumor size is too large and too small were eliminated, the average tumor volume of each group are basically the same. Administration was carried out according to the above regimen; the dosing volume was 0.5 ml/20 g body weight. The axis (a), shorter diameter (b) of tumor was measured 2 times a week with an electronic digital caliper, calculate formula of tumor volume (tumor volume, TV) is as follows: TV=1/2×a×b2, calculate formula of relative tumor volume (relative tumor volume, RTV), is as follows: RTV=Vt/Vo, wherein Vo is the tumor volume measured at the time when dividing cages (i.e. dl), Vt is the tumor volume measured each time. […] T test was conducted. Animals were sacrificed 30 days after inoculation, dissected and the tumor mass were taken, tumor weight was measured.

[6] = Solubility test in buffer solution at pH=1; assay type: physicochemical; conditions: pH=1 buffer solution, simulated gastric fluid, thermodynamic from solid; buffer solution pH=1
Protocol: Compound 9 1.02 mg was precisely weighed and placed in 1.5 mL of EP tube, and 10 uL pH=1 buffer solution was added, vortexed for 30S and ultrasonic for 20 min. There was a lot of visible turbidity after that.
20 uL buffer was added and ultrasounded and the solution was found still turbid. Turbidity reduced after the solution was diluted to 1 mL and vortexed, while there still exist residual after diluted to 2 mL.

Sequence of PI3Kα (P42336 whole entry, species assumed): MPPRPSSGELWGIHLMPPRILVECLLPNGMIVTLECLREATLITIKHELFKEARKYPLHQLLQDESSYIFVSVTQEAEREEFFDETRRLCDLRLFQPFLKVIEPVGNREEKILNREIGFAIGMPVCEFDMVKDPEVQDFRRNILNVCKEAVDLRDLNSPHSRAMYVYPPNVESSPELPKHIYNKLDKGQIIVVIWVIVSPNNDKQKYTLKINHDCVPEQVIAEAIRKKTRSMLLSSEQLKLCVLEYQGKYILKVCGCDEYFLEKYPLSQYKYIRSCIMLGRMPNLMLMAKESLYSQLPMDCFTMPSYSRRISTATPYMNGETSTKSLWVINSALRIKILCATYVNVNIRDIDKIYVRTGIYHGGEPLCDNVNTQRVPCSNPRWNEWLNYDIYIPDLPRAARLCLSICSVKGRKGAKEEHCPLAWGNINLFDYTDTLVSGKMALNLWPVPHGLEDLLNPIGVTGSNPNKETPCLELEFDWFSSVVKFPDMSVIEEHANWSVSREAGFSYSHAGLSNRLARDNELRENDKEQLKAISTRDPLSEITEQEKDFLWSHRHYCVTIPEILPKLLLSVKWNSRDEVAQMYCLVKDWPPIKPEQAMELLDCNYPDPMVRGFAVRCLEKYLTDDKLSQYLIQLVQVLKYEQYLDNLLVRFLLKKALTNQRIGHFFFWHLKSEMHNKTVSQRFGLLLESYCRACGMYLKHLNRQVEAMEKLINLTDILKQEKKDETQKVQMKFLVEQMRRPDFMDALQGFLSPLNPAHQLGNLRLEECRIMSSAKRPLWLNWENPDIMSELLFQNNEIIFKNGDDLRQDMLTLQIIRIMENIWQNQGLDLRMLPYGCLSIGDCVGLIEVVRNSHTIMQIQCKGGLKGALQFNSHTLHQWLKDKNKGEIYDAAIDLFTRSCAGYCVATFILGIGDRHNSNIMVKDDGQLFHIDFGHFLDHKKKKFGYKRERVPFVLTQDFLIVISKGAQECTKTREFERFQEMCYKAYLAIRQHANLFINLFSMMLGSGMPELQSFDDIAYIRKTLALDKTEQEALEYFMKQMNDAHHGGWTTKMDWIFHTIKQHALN
Sequence of PI3Kα (P27986 whole entry partner, species assumed): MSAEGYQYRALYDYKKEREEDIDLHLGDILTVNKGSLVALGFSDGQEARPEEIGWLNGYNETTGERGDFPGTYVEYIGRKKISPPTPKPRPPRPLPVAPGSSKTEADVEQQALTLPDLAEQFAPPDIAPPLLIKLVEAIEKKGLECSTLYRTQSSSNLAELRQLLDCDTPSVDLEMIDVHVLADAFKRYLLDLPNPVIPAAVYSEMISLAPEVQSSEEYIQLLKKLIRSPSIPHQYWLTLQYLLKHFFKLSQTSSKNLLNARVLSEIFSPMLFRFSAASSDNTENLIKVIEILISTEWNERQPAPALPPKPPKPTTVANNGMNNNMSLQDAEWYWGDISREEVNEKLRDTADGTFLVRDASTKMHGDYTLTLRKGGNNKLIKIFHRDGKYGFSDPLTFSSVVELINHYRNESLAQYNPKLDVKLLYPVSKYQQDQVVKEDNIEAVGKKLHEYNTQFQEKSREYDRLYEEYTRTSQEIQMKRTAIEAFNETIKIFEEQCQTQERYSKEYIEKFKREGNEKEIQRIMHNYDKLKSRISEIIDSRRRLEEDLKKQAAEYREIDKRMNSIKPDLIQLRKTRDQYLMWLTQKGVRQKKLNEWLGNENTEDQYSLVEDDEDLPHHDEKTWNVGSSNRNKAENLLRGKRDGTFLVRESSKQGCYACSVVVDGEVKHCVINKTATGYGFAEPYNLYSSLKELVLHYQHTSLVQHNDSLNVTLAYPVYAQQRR
Sequence of PI3K delta (O00329 whole entry): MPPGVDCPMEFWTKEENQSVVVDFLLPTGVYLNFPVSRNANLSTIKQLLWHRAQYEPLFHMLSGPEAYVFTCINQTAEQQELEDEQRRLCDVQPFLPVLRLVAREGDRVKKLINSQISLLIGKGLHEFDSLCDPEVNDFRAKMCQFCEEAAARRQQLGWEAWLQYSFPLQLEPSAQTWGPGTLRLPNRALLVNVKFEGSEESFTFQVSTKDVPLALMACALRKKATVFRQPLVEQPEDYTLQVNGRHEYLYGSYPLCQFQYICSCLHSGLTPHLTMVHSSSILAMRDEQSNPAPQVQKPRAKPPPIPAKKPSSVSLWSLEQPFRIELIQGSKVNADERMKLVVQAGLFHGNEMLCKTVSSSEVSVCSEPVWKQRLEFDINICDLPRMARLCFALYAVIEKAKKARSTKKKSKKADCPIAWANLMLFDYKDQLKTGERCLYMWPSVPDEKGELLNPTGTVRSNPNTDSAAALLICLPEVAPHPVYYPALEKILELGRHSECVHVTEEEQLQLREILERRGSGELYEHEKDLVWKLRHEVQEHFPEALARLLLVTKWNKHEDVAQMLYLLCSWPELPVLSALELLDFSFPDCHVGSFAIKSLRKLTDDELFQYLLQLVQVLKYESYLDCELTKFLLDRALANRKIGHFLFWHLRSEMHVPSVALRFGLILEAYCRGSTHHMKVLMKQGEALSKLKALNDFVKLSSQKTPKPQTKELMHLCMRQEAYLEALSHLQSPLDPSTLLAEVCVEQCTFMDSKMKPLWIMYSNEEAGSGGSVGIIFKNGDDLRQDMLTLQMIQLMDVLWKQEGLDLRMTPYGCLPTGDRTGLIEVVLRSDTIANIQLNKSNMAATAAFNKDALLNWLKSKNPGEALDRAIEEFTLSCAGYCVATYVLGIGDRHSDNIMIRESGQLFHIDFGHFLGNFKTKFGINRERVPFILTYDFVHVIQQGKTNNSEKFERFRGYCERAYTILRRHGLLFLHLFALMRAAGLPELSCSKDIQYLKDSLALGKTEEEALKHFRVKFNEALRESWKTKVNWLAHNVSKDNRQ
Sequence of PI3K delta (P27986 whole entry partner): as the sequence (P27986 whole entry partner, species assumed) above
Sequence of PI3Kβ (P42338 whole entry, species assumed): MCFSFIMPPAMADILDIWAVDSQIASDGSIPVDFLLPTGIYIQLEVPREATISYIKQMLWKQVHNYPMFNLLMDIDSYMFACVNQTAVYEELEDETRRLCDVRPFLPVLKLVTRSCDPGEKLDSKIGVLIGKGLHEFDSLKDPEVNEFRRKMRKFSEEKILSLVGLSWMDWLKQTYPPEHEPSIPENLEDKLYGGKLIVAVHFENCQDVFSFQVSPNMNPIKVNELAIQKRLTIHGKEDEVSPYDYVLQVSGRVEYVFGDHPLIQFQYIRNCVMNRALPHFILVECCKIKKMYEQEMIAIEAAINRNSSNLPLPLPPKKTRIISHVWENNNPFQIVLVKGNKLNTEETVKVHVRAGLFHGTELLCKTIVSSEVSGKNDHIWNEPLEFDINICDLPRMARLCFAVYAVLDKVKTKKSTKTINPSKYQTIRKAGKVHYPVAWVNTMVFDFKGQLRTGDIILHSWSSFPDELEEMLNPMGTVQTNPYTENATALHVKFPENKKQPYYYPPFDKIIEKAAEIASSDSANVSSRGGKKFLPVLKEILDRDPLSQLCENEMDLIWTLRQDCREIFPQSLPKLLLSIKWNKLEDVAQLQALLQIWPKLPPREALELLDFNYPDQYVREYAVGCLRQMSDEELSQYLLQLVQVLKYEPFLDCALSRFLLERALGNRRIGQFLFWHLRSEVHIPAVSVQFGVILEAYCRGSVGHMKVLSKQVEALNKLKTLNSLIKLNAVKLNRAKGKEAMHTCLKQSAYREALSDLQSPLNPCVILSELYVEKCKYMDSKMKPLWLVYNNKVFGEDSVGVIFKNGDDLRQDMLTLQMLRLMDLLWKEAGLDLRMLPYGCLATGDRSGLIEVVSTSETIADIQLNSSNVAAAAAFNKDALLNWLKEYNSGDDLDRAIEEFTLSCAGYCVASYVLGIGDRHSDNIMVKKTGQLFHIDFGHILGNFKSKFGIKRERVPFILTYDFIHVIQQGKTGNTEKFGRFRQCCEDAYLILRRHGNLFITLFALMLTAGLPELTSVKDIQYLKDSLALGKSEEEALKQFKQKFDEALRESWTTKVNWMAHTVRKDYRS
Sequence of PI3Kβ (P27986 whole entry partner, species assumed): as the sequence (P27986 whole entry partner, species assumed) above
Sequence of PI3Kγ (P48736 whole entry, species assumed): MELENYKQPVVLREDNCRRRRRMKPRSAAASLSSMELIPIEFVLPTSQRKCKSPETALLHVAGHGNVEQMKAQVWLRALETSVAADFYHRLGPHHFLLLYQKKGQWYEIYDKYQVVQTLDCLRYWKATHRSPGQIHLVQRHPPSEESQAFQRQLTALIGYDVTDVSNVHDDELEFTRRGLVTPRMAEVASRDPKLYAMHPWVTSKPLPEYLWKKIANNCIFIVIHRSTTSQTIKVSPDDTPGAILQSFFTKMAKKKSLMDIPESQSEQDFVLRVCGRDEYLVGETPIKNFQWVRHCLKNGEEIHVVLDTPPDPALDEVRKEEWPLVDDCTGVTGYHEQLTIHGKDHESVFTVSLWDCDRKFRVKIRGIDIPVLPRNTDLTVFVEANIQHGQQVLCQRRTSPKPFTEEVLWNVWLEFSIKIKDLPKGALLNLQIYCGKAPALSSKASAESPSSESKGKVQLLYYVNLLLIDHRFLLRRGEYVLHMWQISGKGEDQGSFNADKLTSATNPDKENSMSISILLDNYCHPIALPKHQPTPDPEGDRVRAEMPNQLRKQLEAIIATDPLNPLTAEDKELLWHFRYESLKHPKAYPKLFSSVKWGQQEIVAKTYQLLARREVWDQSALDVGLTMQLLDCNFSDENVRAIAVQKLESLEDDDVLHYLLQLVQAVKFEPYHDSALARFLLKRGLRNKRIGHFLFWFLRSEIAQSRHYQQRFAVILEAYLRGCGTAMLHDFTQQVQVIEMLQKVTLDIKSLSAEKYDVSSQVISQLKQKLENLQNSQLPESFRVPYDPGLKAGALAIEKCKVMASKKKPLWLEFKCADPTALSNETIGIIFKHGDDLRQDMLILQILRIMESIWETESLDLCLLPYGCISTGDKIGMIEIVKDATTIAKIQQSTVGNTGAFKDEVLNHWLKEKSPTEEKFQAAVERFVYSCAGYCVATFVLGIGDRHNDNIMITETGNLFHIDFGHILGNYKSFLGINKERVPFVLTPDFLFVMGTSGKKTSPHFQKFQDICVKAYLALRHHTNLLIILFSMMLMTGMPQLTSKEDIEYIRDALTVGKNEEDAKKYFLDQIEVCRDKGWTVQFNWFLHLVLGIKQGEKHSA

IC50 (PI3Kα): 1.3 nM
IC50 (PI3Kγ): 1.5 nM
IC50 (PI3Kβ): 1.8 nM
IC50 (PI3K delta): 3.8 nM
IC50 (mTOR): 3.8 nM
IC50 [1]: 2.47 ng/mL (≈ 0.00441 µM)
IC50 [2]: 1.69 ng/mL (≈ 0.00301 µM)
IC50 [3]: 51 ng/mL (≈ 0.091 µM)
Animal wight (g) (tumor removed) ([5]; at end): 23.28 ± 1.34 g
solubility at 20 min [6]: 33.3 mg/mL (≈ 59400 µM)
SMILES: COc1ncc(-c2ccc3nccc(-c4ccc(CN(C)C)cc4)c3c2)cc1NS(=O)(=O)c1ccc(F)cc1F [Compound 9, N-(5-(4-(4-((dimethylamine)methyl)phenyl)quinolin-6-yl)-2-methoxypyridine-3-yl)-2,4-difluorobenzenesulfonamide]
in vitro proliferation inhibition (in words) (five human tumor cells): high in vitro proliferation inhibition
GI50 (A549): < 10 nM
GI50 (COLO205): 13.5 nM
GI50 (SF539): 17 nM
GI50 (OVCAR3): < 10 nM
GI50 (SN12C): < 10 nM
GI50 (PC3): < 10 nM
GI50 (MCF7): < 10 nM
GI50 ([4]; on the 35 tumor cell lines, read-out: average half growth inhibitory concentration (GI50)): < 10 nM
GI50 ([4]; on the 60 kinds of tumor cells, read-out: Average GI50): 18.6 nM
RTV (d18) x ± SD ([5]; d18): 5.37 ± 1.86

Source: US20160168118A1, “N-(5-QUINOLIN-6-YL)PYRIDIN-3-YL) BENZSULFAMIDE DERIVATIVES, PREPARATION METHOD AND THERAPEUTIC USE THEREOF” (SECOND MILITARY MEDICAL UNIVERSITY, PLA, priority 2012, published 2016)
